The numbers were not newly measured in patent US6753298B2, “Agents for combating Neospora spec” (Bayer AG, priority 1997, dated 2004), which cites them from elsewhere.

The test system of the data set is Neospora. The conditions noted are these: experimentally infected mice; administered by drinking water.

Molecules are shown by their SMILES.

Turning to `Nc1ccc(S(=O)(=O)Nc2ncccn2)cc1` [sulphadiazine], the in-vivo efficacy entry is given as “effective only when the treatment was prophylactic”.
